The results in this text go back to article PMC8498006 (Advances in Redox Research, 2021).

Assay [1] addresses T1, SARS-CoV-2 M^pro (MBP-cleaved) (Severe acute respiratory syndrome coronavirus 2, UniProt P0DTD1). As to the kind of experiment: Intact MS of M^pro after incubation with phytochemicals. The assay is classed as binding. Conditions: 0.5 µM enzyme; for covalent adduct on M^pro by intact MS: 1 µM phytochemical, 37°C 30 min.
Assay [2] deals with SARS-CoV-2 M^pro (MBP-tagged main protease) (Severe acute respiratory syndrome coronavirus 2, UniProt P0DTD1). As to the kind of experiment: biochemical. Conditions: for suppressive effect on the protease activity at 20 µM: 20 µM phytochemical, 0.5 µM enzyme, 37°C 30 min.
Assay [3] has as its target T1, SARS-CoV-2 M^pro (MBP-cleaved). As to the kind of experiment: Free thiols in the enzyme by biotin incorporation. To be noted: iodoacetyl-LC-biotin labelling.
Assay [4] has the same target. The experiment in a line: Enzyme activity of MBP-cleaved M^pro with EGCG/myricetin, with or without GSH. To be noted: 0.5 µM enzyme. The assay is classed as biochemical.
For assay [5] the target is unchanged. The experiment in a line: Quinone detection on blotted membrane by redox-cycling. Conditions: 2.5 µM phytochemical, 1 mM GSH. The assay is classed as binding.

On to `Oc1cc(O)cc(/C=C/c2ccc(O)c(O)c2)c1` [piceatannol], for which the “covalent adduct on M^pro by intact MS” value in assay [1] is reported as “One or two molecule(s)”. This compound also showed an IC50 in assay [2] of 13.8 µM.
`O=c1c(O)cc([C@H]2Oc3cc(O)cc(O)c3C[C@H]2O)cc2c([C@H]3Oc4cc(O)cc(O)c4C[C@H]3O)cc(O)c(O)c12` [theaflavin]: the “covalent adduct on M^pro by intact MS” value in assay [1] is listed as “One or two molecule(s)”. Also, in assay [2], the IC50 is 6.1 µM and the “suppressive effect on the protease activity at 20 µM” value (from here on “suppressive effect”) is “considerably inhibited”.
Take `OC[C@H]1O[C@@H](Oc2cc3c(O)cc(O)cc3[o+]c2-c2ccc(O)c(O)c2)[C@H](O)[C@@H](O)[C@@H]1O.[Cl-]` [cyanidine-3-glucoside, Cyanidine-3-glucoside chloride]: in assay [2], the “suppressive effect” value is recorded as “did not show suppressive effect”.
For `O=c1c(O)c(-c2ccc(O)c(O)c2)oc2cc(O)cc(O)c12` [quercetin], the “suppressive effect” value in assay [2] is reported as “did not show suppressive effect”.
As to `O=c1cc(-c2ccccc2)oc2cc(O)c(O)c(O)c12` [baicalein], the “covalent adduct on M^pro by intact MS” value in assay [1] is “covalent adducts were not observed”.
As for `C[C@@H]1O[C@@H](OC[C@H]2O[C@@H](Oc3c(-c4ccc(O)c(O)c4)oc4cc(O)cc(O)c4c3=O)[C@H](O)[C@@H](O)[C@@H]2O)[C@H](O)[C@H](O)[C@H]1O` [rutin, quercetin-3-O-rutinoside], the “suppressive effect” value in assay [2] was “did not show suppressive effect”.
In assay [2], `C=CCN=C=S` [AITC, Allyl isothiocyanate] showed an IC50 of 33.3 µM.
In the case of `COc1ccc(-c2cc(=O)c3c(O)c(OC)c(O[C@@H]4O[C@H](CO[C@@H]5O[C@@H](C)[C@H](O)[C@@H](O)[C@H]5O)[C@@H](O)[C@H](O)[C@H]4O)cc3o2)cc1` [pectolinarin], in assay [2], the “suppressive effect” value is on record as “did not show suppressive effect”.
`O=c1c(O)c(-c2cc(O)c(O)c(O)c2)oc2cc(O)cc(O)c12` [myricetin]: the “free thiols in the M^pro with increasing concentration” value in assay [3] is given as “decreased”. Moreover, the “dose dependence of adduction by intact MS” value in assay [1] (0–5 µM) is “dose-dependently observed”. Besides, the “covalent adduct on M^pro by intact MS” value in assay [1] is reported as “One or two molecule(s)”. For the same compound, in assay [2], the “suppressive effect” value is listed as “considerably inhibited”. Also, the “enzyme activity with increasing concentration” value in assay [4] (0–5 µM, substrate reaction 15 min) is given as “decreased accordingly”. In assay [4] (2.5 µM phytochemical, 1 mM GSH, 30 min), the “enzyme activity loss in the presence of GSH” value is “canceled”. Besides, in assay [5], the “quinone staining in the presence of GSH” value is “canceled”.
Take `S=C=NCc1ccccc1` [BITC, benzyl isothiocyanate]: in assay [2], inhibition was half-maximal at 4.5 µM (IC50) and the “suppressive effect” value is on record as “considerably inhibited”.
In assay [2], `S=C=NCCc1ccccc1` [PEITC, phenethyl isothiocyanate] returned an IC50 of 14.2 µM.
With myricitrin, the “covalent adduct on M^pro by intact MS” value in assay [1] was “covalent adducts were not observed”.
As for `O=c1c(O)c(-c2ccc(O)cc2)oc2c(O)c(O)cc(O)c12` [herbacetin], the “covalent adduct on M^pro by intact MS” value in assay [1] is reported as “covalent adducts were not observed”. Inhibition in assay [2] was half-maximal at 19.2 µM (IC50).
